Patent US5449592A, “Silver halide color photographic light sensitive material for color proof and method for preparing color proof using the same” (Konica Corporation, priority 1988, dated 1995)

Test: pKa of couplers, spectrophotometric method
Type: physicochemical
Settings: spectrophotometric method (no asterisk); 2-butoxyethanol and water (30:70)
From the text: (§1) In this invention, a pKa value means a common logarithmic value of the reciprocal of a proton-dissociation equilibrium constant K at the active site of a coupler.
(§2) As described in, for example, J.C.S., Perkin I, 809(1973) and 1768(1973), J. Phot. Sci., 22,49(1974), E. Pelizzrtti(3M, Italia), C. Saini(Toino Vniv.) and J. Phot. Sci., 13,248(1985) B. P. Brand (ICI), a pKa value can be measured in a spectrophotometric method or a neutralization-titration mehtod, using a suitable solvent such as a mixture of water and organic solvent.
In the spectrophotometric method, a pka value of coupler is regarded as a pH value obtained in correspondence with the inflection point of a rerational curve obtained between the pH and absorbance of a coupler solution, utilizing the fact that there is a difference in absorbance between the coupler itself and the anion thereof.
To be more concrete, the above-mentioned coupler solution is prepared by the use of a mixture of 2-butoxyethanol and water (30:70) as a solvent. The concentration of the coupler solution is adjusted to the order of 1×10^-5 to 1×10^-2 M so that pKa values can readily be measured. The coupler solution is added with anhydrous potassium carbonate in an amount of 3 g per liter, and is further adjusted to be various pH values by adding hydrochloric acid and potassium hydroxide correspondingly. The spectral absorbance of each solution is then measured so as to obtain a relational curve made between the pH value and the spectral absorbance of each solution.
Certain of couplers have plural dissociable protons. In those cases, plural pKa values may be obtained. Among those values, however, each pKa value of this invention means a value measured in relation to making anionic the nucleus of a coupler capable of forming a dye upon coupling reaction with the oxidized product of a color developing agent.
(§3) Either of the above-described two measurement methods may be so selected out as to meet the characteristics of a coupler subjected to a measurement. When measuring one and the same coupler in the two methods, respectively, there are some differences between the resulted pKa values. Howerer, the difference in pKa value between a magenta coupler and yellow coupler used in the invention, i.e., a value of pKa 1-pKa 2, can be applied to the invention, provided that both of the pKa1 and pKa2 values are measured in one and the same method of the two.
In Table 1, pKa values with asterisks are values measured by the neutralization-titration method. The other valves without asterisk are measured by the spectrophotometric method.
Asterisks in Table 2 have the same mean as in Table 1.
In the case of CCCCC(Oc1ccc(C(C)(C)CC)cc1C(C)(C)CC)C(=O)Nc1ccc(CCc2n[nH]c3c(Cl)c(CC)nn23)cc1 (stereo not drawn) [M-16], the pKa is reported as 10.30. Work on CCC(C)(C)c1ccc(OCC(=O)Nc2ccc(S(=O)(=O)CC(C)(C)c3n[nH]c4c(Cl)c(C(C)(C)C)nn34)cc2)c(C(C)(C)CC)c1 [M-40] yielded a pKa of 9.90. CCCCOc1ccc(NS(=O)(=O)c2cc(C(C)(C)CC(C)(C)C)ccc2OCCCC)cc1S(=O)(=O)Nc1ccc(CCCc2n[nH]c3c(Cl)c(C(C)(C)C)nn23)cc1 [M-44] gave a pKa of 10.80. Work on CCCCCCCCC(CCCCCC)CS(=O)(=O)CCc1nn2c(C)n[nH]c2c1Cl (stereo not drawn) [M-9] yielded a pKa of 9.18. Compound CCCCOc1ccc(C(C)(C)CC(C)(C)C)cc1S(=O)(=O)CCCc1n[nH]c2c(Cl)c(C(C)C)nn12 [M-21] has a pKa of 10.07. For CCCCCCCCCCCCCCCCCCS(=O)(=O)CC(C)c1n[nH]c2c(Cl)c(C)nn12 (stereo not drawn) [M-3], the pKa was 8.99. Compound CCCCOc1ccc(C(C)(C)CC(C)(C)C)cc1Sc1c(SCC)nn2c(CCNC(=O)C(CCCC)Oc3ccc(C(C)(C)CC)cc3C(C)(C)CC)n[nH]c12 (stereo not drawn) [M-49] has a pKa of 9.43. Compound CCCCCCCCCCCCCCCCS(=O)(=O)CCC(C)c1n[nH]c2c(Cl)c(C(C)C)nn12 (stereo not drawn) [M-22] has a pKa of 9.70. CCCCCCCCOc1ccc(C)cc1S(=O)(=O)CCS(=O)(=O)CCC(C)c1n[nH]c2c(Cl)c(C(C)C)nn12 (stereo not drawn) [M-26] showed a pKa of 9.68. Work on CCC(C)(C)c1ccc(OCCCC(=O)Nc2ccc(Cl)c(NC(=O)C(Oc3ccc(S(=O)(=O)c4ccc(OCc5ccccc5)cc4)cc3)C(=O)C(C)(C)C)c2)c(C(C)(C)CC)c1 (stereo not drawn) [Y-8] yielded a pKa of 8.60. Compound CCCCCCCCCCCCOc1ccc(S(=O)(=O)Nc2ccc(CCCc3n[nH]c4c(Cl)c(C)nn34)cc2)cc1 [M-1] has a pKa of 10.24. Compound CCCCCCCCCCC(Oc1ccc(C(C)(C)c2ccc(O)cc2)cc1)C(=O)Nc1ccc(S(=O)(=O)CCc2n[nH]c3c(Cl)c(C)nn23)cc1 (stereo not drawn) [M-12] has a pKa of 9.71. In the case of CCCCCCCCC(CCCCCC)CS(=O)(=O)CCc1n[nH]c2c(Cl)c(C)nn12 (stereo not drawn) [M-4], the pKa is reported as 9.11. Work on CCCCOc1ccc(C(C)(C)CC(C)(C)C)cc1S(=O)(=O)CCCc1n[nH]c2c(Cl)c(C(C)(C)C)nn12 [M-33] yielded a pKa of 10.39.

Test: pKa of couplers, neutralization-titration method
Type: physicochemical
Settings: neutralization-titration method (asterisk)
From the text: as §1
as §2, with “solvent. […]” for “solvent.”
Certain of couplers have plural dissociable protons. […] Among those values, however, each pKa value of this invention means a value measured in relation to making anionic the nucleus of a coupler capable of forming a dye upon coupling reaction with the oxidized product of a color developing agent.
as §3, with “When measuring one and the same coupler in the two methods, respectively, there are some differences between the resulted pKa values.” left out
In Table 1, pKa values with asterisks are values measured by the neutralization-titration method. […]
With CCCCCCCCCCCCCC(=O)Nc1ccc(Cl)c(NC2=NN(c3c(Cl)cc(Cl)cc3Cl)C(=O)C2)c1 [MC-1] the pKa was 10.07.
